Bridge positions count the residues as written; N and C are the ends. Square brackets hold non-standard residues; d marks the D form. Peptide text beside a SMILES is read from it.
Molecular target: D. immitis iPGM (Dirofilaria immitis, UniProt F4ZE01)
Experiment: biochemical
Settings: Di iPGM Ave IC50 (M)

Row | SMILES | IC50
1 | CC(C)C[C@H](NC(=O)[C@H](Cc1ccc(O)cc1)NC(=O)[C@@H]1CSCC(=O)N[C@H](Cc2ccc(O)cc2)C(=O)N[C@@H](CC(=O)O)C(=O)N[C@@H](Cc2ccccc2)C(=O)N2CCC[C@H]2C(=O)NCC(=O)N[C@@H](CC(=O)O)C(=O)N[C@@H](Cc2ccc(O)cc2)C(=O)N1)C(=O)N[C@@H](Cc1ccc(O)cc1)C(=O)NCC(=O)N[C@H](C(=O)N[C@@H](CS)C(N)=O)[C@@H](C)O [Ce-2 Y3F] ({CH2CO}-[dY]DFPGDYCYLYGTC-NH2; thioether N-8) | 2.42e-09 M
2 | CC(C)C[C@H](NC(=O)[C@H](Cc1ccc(O)cc1)NC(=O)[C@@H]1CSCC(=O)N[C@H](Cc2ccc(F)cc2)C(=O)N[C@@H](CC(=O)O)C(=O)N[C@@H](Cc2ccc(O)cc2)C(=O)N2CCC[C@H]2C(=O)NCC(=O)N[C@@H](CC(=O)O)C(=O)N[C@@H](Cc2ccc(O)cc2)C(=O)N1)C(=O)N[C@@H](Cc1ccc(O)cc1)C(N)=O [Ce-2d Y1D(4F)F] | 3.7e-08 M
3 | CC(C)C[C@H](NC(=O)[C@H](Cc1ccc(O)cc1)NC(=O)[C@@H]1CSCC(=O)N[C@H](Cc2ccc(O)cc2)C(=O)N[C@@H](CC(=O)O)C(=O)N[C@@H](Cc2c[nH]c3ccccc23)C(=O)N2CCC[C@H]2C(=O)NCC(=O)N[C@@H](CC(=O)O)C(=O)N[C@@H](Cc2ccc(O)cc2)C(=O)N1)C(=O)N[C@@H](Cc1ccc(O)cc1)C(N)=O [Ce-2d Y3W] | 7.09e-06 M
4 | CC(C)C[C@H](NC(=O)[C@H](Cc1ccc(O)cc1)NC(=O)[C@@H]1CSCC(=O)N[C@H](Cc2ccc(O)cc2)C(=O)N[C@@H](CC(=O)O)C(=O)N[C@@H](Cc2ccc(O)cc2)C(=O)N[C@@H](C)C(=O)NCC(=O)N[C@@H](CC(=O)O)C(=O)N[C@@H](Cc2ccc(O)cc2)C(=O)N1)C(=O)N[C@@H](Cc1ccc(O)cc1)C(N)=O [Ce-2d P4A] | 7.94e-08 M
5 | COc1ccc(C[C@H](NC(=O)[C@@H]2CSCC(=O)N[C@H](Cc3ccc(O)cc3)C(=O)N[C@@H](CC(=O)O)C(=O)N[C@@H](Cc3ccc(O)cc3)C(=O)N3CCC[C@H]3C(=O)NCC(=O)N[C@@H](CC(=O)O)C(=O)N[C@@H](Cc3ccc(O)cc3)C(=O)N2)C(=O)N[C@@H](CC(C)C)C(=O)N[C@@H](Cc2ccc(O)cc2)C(N)=O)cc1 [Ce-2d Y9(4OMe)F] | 2.04e-06 M
6 | CC(C)C[C@H](NC(=O)[C@H](Cc1ccc(O)cc1)NC(=O)[C@@H]1CSCC(=O)N[C@H](Cc2ccc(O)cc2)C(=O)N[C@@H](CC(=O)O)C(=O)N[C@@H](Cc2ccc(F)cc2)C(=O)N2CCC[C@H]2C(=O)NCC(=O)N[C@@H](CC(=O)O)C(=O)N[C@@H](Cc2ccccc2)C(=O)N1)C(=O)N[C@@H](Cc1ccc(O)cc1)C(=O)NCC(=O)N[C@H](C(=O)N[C@@H](CS)C(N)=O)[C@@H](C)O | 1.41e-09 M
7 | CC(C)C[C@H](NC(=O)[C@H](Cc1ccc(O)cc1)NC(=O)[C@@H]1CSCC(=O)N[C@H](Cc2ccc(O)cc2)C(=O)NCC(=O)N[C@@H](Cc2ccc(O)cc2)C(=O)N2CCC[C@H]2C(=O)NCC(=O)N[C@@H](CC(=O)O)C(=O)N[C@@H](Cc2ccc(O)cc2)C(=O)N1)C(=O)N[C@@H](Cc1ccc(O)cc1)C(N)=O [Ce-2d D2G] | 1.32e-06 M
8 | CC(C)[C@H](NC(=O)[C@H](Cc1ccc(O)cc1)NC(=O)[C@@H]1CSCC(=O)N[C@H](Cc2ccc(O)cc2)C(=O)N[C@@H](CC(=O)O)C(=O)N[C@@H](Cc2ccc(O)cc2)C(=O)N2CCC[C@H]2C(=O)NCC(=O)N[C@@H](CC(=O)O)C(=O)N[C@@H](Cc2ccc(O)cc2)C(=O)N1)C(=O)N[C@@H](Cc1ccc(O)cc1)C(N)=O [Ce-2d L10V] | 1.93e-06 M
9 | CC(C)C[C@H](NC(=O)[C@H](Cc1ccc(F)cc1)NC(=O)[C@@H]1CSCC(=O)N[C@H](Cc2ccc(O)cc2)C(=O)N[C@@H](CC(=O)O)C(=O)N[C@@H](Cc2ccc(O)cc2)C(=O)N2CCC[C@H]2C(=O)NCC(=O)N[C@@H](CC(=O)O)C(=O)N[C@@H](Cc2ccc(O)cc2)C(=O)N1)C(=O)N[C@@H](Cc1ccc(O)cc1)C(N)=O [Ce-2d Y9(4F)F] | 3.33e-07 M
10 | CC(C)C[C@H](NC(=O)[C@H](Cc1ccccc1)NC(=O)[C@@H]1CSCC(=O)N[C@H](Cc2ccc(O)cc2)C(=O)N[C@@H](CC(=O)O)C(=O)N[C@@H](Cc2ccc(O)cc2)C(=O)N2CCC[C@H]2C(=O)NCC(=O)N[C@@H](CC(=O)O)C(=O)N[C@@H](Cc2ccc(O)cc2)C(=O)N1)C(=O)N[C@@H](Cc1ccc(O)cc1)C(N)=O [Ce-2d Y9F] | 1.43e-05 M
11 | CC(C)C[C@H](NC(=O)[C@H](Cc1ccc(O)cc1)NC(=O)[C@@H]1CSCC(=O)N[C@H](Cc2ccc(O)cc2)C(=O)N[C@@H](CC(=O)O)C(=O)N[C@@H](Cc2ccc(O)cc2)C(=O)N2CCC[C@H]2C(=O)N[C@@H](CCC(N)=O)C(=O)N[C@@H](CC(=O)O)C(=O)N[C@@H](Cc2ccc(O)cc2)C(=O)N1)C(=O)N[C@@H](Cc1ccc(O)cc1)C(N)=O [Ce-2d G5Q] | 5.99e-06 M
12 | COc1ccc(C[C@@H]2NC(=O)[C@H](CC(=O)O)NC(=O)CNC(=O)[C@@H]3CCCN3C(=O)[C@H](Cc3ccc(O)cc3)NC(=O)[C@H](CC(=O)O)NC(=O)[C@@H](Cc3ccc(O)cc3)NC(=O)CSC[C@@H](C(=O)N[C@@H](Cc3ccc(O)cc3)C(=O)N[C@@H](CC(C)C)C(=O)N[C@@H](Cc3ccc(O)cc3)C(N)=O)NC2=O)cc1 [Ce-2d Y7(4OMe)F] | 6.79e-08 M
13 | CC(C)C[C@H](NC(=O)[C@H](Cc1ccc(O)cc1)NC(=O)[C@@H]1CSCC(=O)N[C@H](Cc2ccc(O)cc2)C(=O)N[C@@H](CC(=O)O)C(=O)N[C@@H](Cc2ccc(O)cc2)C(=O)N2CCC[C@H]2C(=O)NCC(=O)N[C@@H](CC(=O)O)C(=O)N[C@@H](Cc2ccc(O)cc2)C(=O)N1)C(=O)N[C@@H](Cc1ccccc1)C(N)=O [Ce-2d Y11F] | 9.89e-08 M
14 | CC(C)C[C@H](NC(=O)[C@H](Cc1ccc(O)cc1)NC(=O)[C@@H]1CSCC(=O)N[C@H](Cc2ccc(O)cc2)C(=O)N[C@@H](CC(=O)O)C(=O)N[C@@H](Cc2ccccc2)C(=O)N2CCC[C@H]2C(=O)NCC(=O)N[C@@H](CC(=O)O)C(=O)N[C@@H](Cc2ccc(O)cc2)C(=O)N1)C(=O)N[C@@H](Cc1ccc(O)cc1)C(N)=O [Ce-2d Y3F] | 3.2e-06 M
15 | CC(C)C[C@H](NC(=O)[C@H](Cc1ccc(O)cc1)NC(=O)[C@@H]1CSCC(=O)N[C@H](Cc2ccc(O)cc2)C(=O)N[C@@H](CC(=O)O)C(=O)N[C@@H](Cc2ccc(F)cc2)C(=O)N2CCC[C@H]2C(=O)NCC(=O)N[C@@H](CC(=O)O)C(=O)N[C@@H](Cc2ccc(O)cc2)C(=O)N1)C(=O)N[C@@H](Cc1ccc(O)cc1)C(N)=O [Ce-2d Y3(4F)F] | 1.48e-07 M
16 | CC(C)C[C@H](NC(=O)[C@H](Cc1ccc(O)cc1)NC(=O)[C@@H]1CSCC(=O)N[C@H](Cc2ccc(O)cc2)C(=O)N[C@@H](CCC(=O)O)C(=O)N[C@@H](Cc2ccc(O)cc2)C(=O)N2CCC[C@H]2C(=O)NCC(=O)N[C@@H](CC(=O)O)C(=O)N[C@@H](Cc2ccc(O)cc2)C(=O)N1)C(=O)N[C@@H](Cc1ccc(O)cc1)C(N)=O [Ce-2d D2E] | 9.99e-08 M
17 | CC(C)C[C@H](NC(=O)[C@H](CC(C)C)NC(=O)[C@H](Cc1ccc(O)cc1)NC(=O)[C@@H]1CSCC(=O)N[C@H](Cc2ccc(O)cc2)C(=O)N[C@@H](CC(=O)O)C(=O)N[C@@H](Cc2ccc(O)cc2)C(=O)N2CCC[C@H]2C(=O)NCC(=O)N[C@@H](CC(=O)O)C(=O)N[C@@H](Cc2ccc(O)cc2)C(=O)N1)C(N)=O [Ce-2d Y11L] | 2.43e-07 M
18 | CC(C)C[C@H](NC(=O)[C@H](Cc1ccc(O)cc1)NC(=O)[C@@H]1CSCC(=O)N[C@H](Cc2ccc(O)cc2)C(=O)N[C@@H](CC(=O)O)C(=O)N[C@@H](Cc2ccc(O)cc2)C(=O)N2CCC[C@H]2C(=O)NCC(=O)N[C@@H](CC(=O)O)C(=O)N[C@@H](Cc2ccc(O)cc2)C(=O)N1)C(=O)N[C@@H](Cc1ccc(F)cc1)C(N)=O [Ce-2d Y11(4F)F] | 7.11e-08 M
19 | CC(C)C[C@H](NC(=O)[C@H](Cc1ccc(O)cc1)NC(=O)[C@@H]1CSCC(=O)N[C@H](Cc2ccc(O)cc2)C(=O)N[C@@H](CC(=O)O)C(=O)N[C@@H](Cc2ccc(O)cc2)C(=O)N2CCC[C@H]2C(=O)NCC(=O)N[C@@H](CC(=O)O)C(=O)N[C@@H](CO)C(=O)N1)C(=O)N[C@@H](Cc1ccc(O)cc1)C(N)=O [Ce-2d Y7S] | 1.78e-07 M
20 | CC(C)C[C@H](NC(=O)[C@H](Cc1ccc(O)cc1)NC(=O)[C@@H]1CSCC(=O)N[C@H](Cc2ccc(O)cc2)C(=O)N[C@@H](CC(=O)O)C(=O)N[C@@H](Cc2ccc(O)cc2)C(=O)N2CCC[C@H]2C(=O)NCC(=O)N[C@@H](CC(=O)O)C(=O)N[C@@H](Cc2ccc(O)cc2)C(=O)N1)C(=O)N[C@@H](Cc1ccc(O)cc1)C(=O)O [Ce-2d Y11COOH] | 7.75e-07 M
21 | CC(C)C[C@H](NC(=O)[C@H](Cc1ccc(O)cc1)NC(=O)[C@@H]1CSCC(=O)N[C@H](Cc2ccc(O)cc2)C(=O)N[C@@H](C(C)C)C(=O)N[C@@H](Cc2ccc(O)cc2)C(=O)N2CCC[C@H]2C(=O)NCC(=O)N[C@@H](CC(=O)O)C(=O)N[C@@H](Cc2ccc(O)cc2)C(=O)N1)C(=O)N[C@@H](Cc1ccc(O)cc1)C(N)=O [Ce-2d D2V] | 5.77e-07 M
22 | CC(C)C[C@H](NC(=O)[C@H](Cc1ccc(O)cc1)NC(=O)[C@@H]1CSCC(=O)N[C@@H](Cc2ccc(F)cc2)C(=O)N[C@@H](CC(=O)O)C(=O)N[C@@H](Cc2ccc(O)cc2)C(=O)N2CCC[C@H]2C(=O)NCC(=O)N[C@@H](CC(=O)O)C(=O)N[C@@H](Cc2ccc(O)cc2)C(=O)N1)C(=O)N[C@@H](Cc1ccc(O)cc1)C(N)=O [Ce-2d Y1(4F)F] | 5.35e-08 M
23 | CC(C)C[C@H](NC(=O)[C@H](Cc1ccc(O)cc1)NC(=O)[C@@H]1CSCC(=O)N[C@H](Cc2ccc(O)cc2)C(=O)N[C@@H](CC(=O)O)C(=O)N[C@@H](Cc2ccc(O)cc2)C(=O)N2CCC[C@H]2C(=O)NCC(=O)N[C@@H](CC(N)=O)C(=O)N[C@@H](Cc2ccc(O)cc2)C(=O)N1)C(=O)N[C@@H](Cc1ccc(O)cc1)C(N)=O [Ce-2d D6N] | 6.18e-06 M

— paper PMC8113725, “Structure–activity relationship of ipglycermide binding to phosphoglycerate mutases” (The Journal of Biological Chemistry, 2021)
